{
  "source": "paper PMC12330940",
  "about": "“Targeting the MDM2‐MDM4 interaction interface reveals an otherwise therapeutically active wild‐type p53 in colorectal cancer” (Molecular Oncology, 2025)",
  "key": {"[1]": {"test_system": "p21", "conditions": "cited from earlier work", "excerpt": "P21 has also shown anti‐apoptotic activity, which could contribute to antagonizing the p53‐mediated apoptotic response."}, "[2]": {"test_system": "immortalized lymphoblastoid cells (LCLs) from healthy donors", "assay": "Viability assay of lymphoblastoid cells (LCLs)", "type": "cell-based, human", "conditions": "4 biological replicates, Pep3S 10 µM, Nutlin 2.5 and 10 µM"}, "[3]": {"test_system": "SESN2, IGF1R, STAT1 mRNA in HCT116 cells", "assay": "SESN2, IGF1R, STAT1 mRNA RT-qPCR in HCT116", "type": "cell-based, human", "conditions": "HCT116, 48 h", "description": "(§1) Gene expression was evaluated 48 h after treatment using quantitative real‐time PCR (7900HT Fast; Applied Biosystems, Foster City, CA, USA). RNA extraction was performed using TRIzol® Reagent (Invitrogen, Waltham, MA, USA). RNA (500/1000 ng from cells or mice, respectively) was reverse transcribed with SMART MMLV Reverse Transcriptase (Takara, Shiga, Japan) and subjected to PCR amplification using the SensiMix SYBR Lox‐ROX Kit (Meridian Bioscience, Cincinnati, OH, USA)."}, "[4]": {"test_system": "p21 mRNA in LoVo cells", "assay": "p21 mRNA RT-qPCR in LoVo", "type": "cell-based, human", "conditions": "48 h, three independent experiments", "description": "as §1"}, "[5]": {"test_system": "p21 mRNA in immortalized lymphoblastoid cells (LCLs) from healthy donors", "assay": "p21 mRNA RT-qPCR in lymphoblastoid cells", "type": "cell-based, human", "conditions": "48 h", "excerpt": "(§2) Human colorectal carcinoma cells HCT116 wt‐p53 (RRID: CVCL_0291) were purchased from Sigma‐Aldrich (Darmstadt, Germany). HCT116 exon two knockout TP53 (hereafter p53^−/−) were obtained from Vogelstein's Lab, LoVo (Johns Hopkins University, Baltimore, MD, USA) (RRID: CVCL_0399) from Vitiani's lab (Istituto Superiore di Sanità, Roma, Italy). HCT116 and LoVo cells were maintained in DMEM low glucose (Sigma‐Aldrich) supplemented with 10% FBS (Gibco™, Walthman, MA, USA), 1% penicillin–streptomycin (Sigma‐Aldrich), 1% L‐glutamine (Sigma‐Aldrich) at 37 °C, 5% CO2. Lymphoblastoid cells from healthy donors (LCLs) were grown in RPMI‐1640 (Sigma‐Aldrich), supplemented with 15% FBS (Gibco™), 1% penicillin–streptomycin (Sigma‐Aldrich), 1% L‐glutamine (Sigma‐Aldrich). Primary human myoblasts (Lonza, Basel, Switzerland) were grown in SkGM‐2 medium (Lonza). Cell lines were maintained at 37 °C, 5% CO2.\nas §1"}, "[6]": {"test_system": "miR-34a in HCT116 cells", "assay": "miR-34a expression RT-qPCR in HCT116", "type": "cell-based, human", "conditions": "HCT116, 48 h; two independent experiments", "description": "(§3) For human p53 signaling pathway analysis, the RT^2 Profiler PCR Array 384 well ‘Human p53 signaling pathway’ was used, following the manufacturer's instructions (Qiagen, Venlo, The Netherlands). Differences of ≥ 1.3‐fold were used as […] criteria. The hsa‐miR‐34a expression was analyzed using the TaqMan™ MicroRNA Assay (Thermo). The results were normalized to those obtained using snRNA RNU6B. Common targets of p53 and miR‐34a were evaluated using miRGator v3.0, miRTarBase, and TargetScanHuman."}, "[7]": {"test_system": "p21 mRNA in shMDM4 HCT116 cells", "assay": "p21 mRNA in shMDM4 vs shLacZ HCT116", "type": "cell-based, human", "conditions": "doxycycline-inducible shMDM4 vs shLacZ HCT116, 48 h treatment", "description": "ShMDM4 and shLacZ (as control) HCT116 (wt‐p53 and p53^−/−) cells were obtained by transfection of doxycycline‐inducible silencing plasmids using jetPRIME transfection reagent (Polyplus, Illkirch‐Graffenstaden, France). Cells were maintained in DMEM low glucose (Sigma‐Aldrich) supplemented with 10% FBS (Gibco™) and 1% penicillin–streptomycin (Sigma‐Aldrich). After 24 h, the cells were selected with […] puromycin (Sigma‐Aldrich). Silencing was induced with 1 μg·mL^−1 doxycycline.\nas §1"}, "[8]": {"test_system": "miR-34a in LoVo cells", "assay": "miR-34a expression RT-qPCR in LoVo", "type": "cell-based, human", "conditions": "48 h, two independent experiments", "description": "as §3"}, "[9]": {"test_system": "p21 mRNA in HCT116 cells", "assay": "p21 mRNA RT-qPCR in HCT116", "type": "cell-based, human", "conditions": "HCT116, 48 h; three independent experiments", "description": "as §1"}, "[10]": {"test_system": "p53", "conditions": "ref [4]; cited from earlier work", "excerpt": "The extent to which these additional events could be attributed to the dissociated proteins MDM4 or MDM2 remains to be ascertained. Indeed, the potential persistence of MDM2 and MDM4 binding to p53 represents a unique feature of p53 reactivating molecules. […] This is probably mediated by the binding of MDM2 to p53, which, although with reduced efficiency, controls the p53 protein levels. In ad ..."}, "[11]": {"conditions": "ref [20], cited from earlier work", "excerpt": "To test Pep3S's tumor‐suppressive properties, we focused on colorectal cancer (CRC) cell lines. The frequency of the wild‐type (wt) p53 gene in CRC is approximately 40%, which offers a potential window for the therapeutic application of p53‐reactivating molecules. […] BIK levels were increased by Pep3S. […] To understand the molecular pathways underlying Pep3S activity, we analyzed differentially expressed genes (DEGs) by Pep3S and Pep3 compared to a mix of Scramble3 and Scramble3S in HCT116 cells using a p53‐transcriptional array containing 80 validated targets of the human p53 pat ..."}, "[12]": {"test_system": "p21 mRNA in HCT116 xenograft tumors", "assay": "p21 mRNA RT-qPCR in xenograft tumors", "type": "in vivo, mouse", "conditions": "n Pep3 = 3, n Pep3S = 5", "description": "as §1\nAnimal studies obtained ethical approval from the Ministry of Health (Protocol N° 79/2023‐PR) and were conducted conforming to the institutional guidelines in compliance with named Italian legislation (DL N116, GU, suppl. 40, 18‐2‐1992). Inbred BALB/c nude mice (CAnN.Cg‐Foxn1^nu/J) obtained from the CNR‐IBBC‐EMMA‐Infrafrontier animal facility were housed in two per cage in the CNR‐IBBC‐EMMA‐Infrafrontier animal house. All animals were housed under controlled lighting conditions (daily light period, 07.00–19.00 h) at 20 ± 2° C, with ad libitum access to food (Emma 23, Mucedola, Settimo Milanese, Italy) and chlorinated filtered water. […] Tumor growth was followed and analyzed by luciferase activity over time. […] Bioluminescence acquisitions were performed with a Hybrid OI/CT system (MILabs, Houten, The Netherlands), and the images were analyzed using MILABS‐OI‐PP software. […]"}, "[13]": {"test_system": "human p53 pathway target genes in HCT116 cells", "assay": "RT2 Profiler PCR Array Human p53 signaling pathway, HCT116", "type": "cell-based", "description": "as §3"}, "[14]": {"target": "human MDM2 (Homo sapiens, UniProt Q00987)", "sequence (Q00987 whole entry)": "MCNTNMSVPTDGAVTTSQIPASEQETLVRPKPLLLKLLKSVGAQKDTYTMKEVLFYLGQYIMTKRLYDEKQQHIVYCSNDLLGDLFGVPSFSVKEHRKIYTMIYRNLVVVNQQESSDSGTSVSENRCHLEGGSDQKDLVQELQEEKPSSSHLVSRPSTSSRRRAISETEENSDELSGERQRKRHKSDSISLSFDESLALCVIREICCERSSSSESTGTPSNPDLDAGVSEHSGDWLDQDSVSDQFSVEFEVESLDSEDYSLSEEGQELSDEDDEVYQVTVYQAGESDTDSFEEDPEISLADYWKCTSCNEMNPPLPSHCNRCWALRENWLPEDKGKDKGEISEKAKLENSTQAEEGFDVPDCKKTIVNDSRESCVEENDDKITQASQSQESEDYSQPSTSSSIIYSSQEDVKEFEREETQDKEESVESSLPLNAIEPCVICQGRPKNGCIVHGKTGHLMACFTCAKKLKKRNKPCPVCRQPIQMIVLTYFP", "assay": "in vitro affinity to MDM2 (dissociation constant)", "conditions": "Scramble3S with spread ± 0.028, binding method not described"}, "[15]": {"test_system": "HCT116 cells (wt-p53)", "assay": "PrestoBlue viability assay, 2D HCT116", "type": "cell-based, human", "conditions": "2D HCT116, 96 h, three independent experiments", "excerpt": "as §2\nTreatments (0.1% DMSO, 10 μM all peptides, 20 μM cisplatin, 10 μM Nutlin‐3a (Sigma‐Aldrich)) were administered every other day. […]\nCell viability was monitored every other day using PrestoBlue™ HS Cell Viability Reagent (Thermo Fisher Scientific). The fluorescence signal was read at 45′ (for 2D) or 1 h (for spheroids) using a spectrophotometer plate reader (Varioskan™ LUX; Thermo Fisher Scientific). Fluorescence excitation/emission: 570/610 nm."}, "[16]": {"test_system": "human myoblasts", "assay": "Proliferation of human myoblasts", "type": "cell-based", "conditions": "healthy human myoblasts", "excerpt": "as §2"}, "[17]": {"conditions": "comparative analysis, miRGator v3.0, miRTarBase, TargetScanHuman"}, "[18]": {"conditions": "heat map of DEGs modulated by Pep3 only"}},
  "note": "Ends that are not written are not given here.",
  "data": [
    {"molecule": "Cc1ccnc(NC(c2cccc(Cl)c2Cl)c2ccc3cccnc3c2O)c1", "note": "(centres unmarked) [MMRi64]", "values": [
      {"measurement": "p21 levels", "setting": "[1]; ref [21]", "result": "minimal induction of p21 followed by its strong downregulation"}
    ]},
    {"molecule": "COc1ccc(C2=N[C@@H](c3ccc(Cl)cc3)[C@@H](c3ccc(Cl)cc3)N2C(=O)N2CCNC(=O)C2)c(OC(C)C)c1", "note": "[Nutlin‐3a]", "values": [
      {"measurement": "cell proliferation", "setting": "[2]", "result": "highly potent"},
      {"measurement": "levels of some p53 targets by RT-qPCR", "setting": "[3]; Fig. S3C,D", "result": "opposite activity by upregulating the levels of some of these targets"},
      {"measurement": "SESN2 mRNA level", "setting": "[3]; two independent experiments", "result": "strong upregulation of SESN2"},
      {"measurement": "p21 mRNA levels", "setting": "[4]", "result": "strongly induced p21 expression"},
      {"measurement": "p21 levels", "setting": "[5]", "result": "highly potent"},
      {"measurement": "miR-34a levels", "setting": "[6]", "result": "induced miR‐34a expression"},
      {"measurement": "effect of MDM4 silencing on p21 regulation", "setting": "[7]", "result": "ineffective in the upregulation mediated by Nutlin‐3a"},
      {"measurement": "miR-34a levels", "setting": "[8]", "result": "induced miR‐34a expression"},
      {"measurement": "p21 mRNA levels", "setting": "[9]", "result": "strongly induced p21 expression"},
      {"measurement": "p53 levels", "setting": "[10]", "result": "increase in p53 levels"}
    ]},
    {"molecule": "OCc1ccc(-c2ccc(-c3ccc(CO)s3)o2)s1", "note": "[RITA]", "values": [
      {"measurement": "p21 protein levels", "setting": "[1]; ref (43)", "result": "caused the downregulation of p21 protein levels"}
    ]},
    {"molecule": "Ac-KEIQLVIKVFIA-NH2 [Pep3]", "values": [
      {"measurement": "DEG mRNA levels by RT-qPCR", "setting": "[3]; SESN2, IGF1R, STAT1, two independent experiments", "result": "confirmed the downregulation of some of these DEGs"},
      {"measurement": "mediators of pro-apoptotic activity", "setting": "[11]; PIG3 and BIK", "result": "mediated by the activation of the pro‐oxidant p53‐targets PIG3 and BIK"},
      {"measurement": "IC50", "setting": "[11]; compared with Pep3S IC50, cell line not given", "result": 10000, "unit": "nM"},
      {"measurement": "pro-apoptotic activity linked to oxidative stress", "setting": "[11]", "result": "linked to the activation of an oxidative stress response"},
      {"measurement": "p21 mRNA levels", "setting": "[12]", "result": "Although less severe, Pep3 caused a similar decrease"},
      {"measurement": "p21 mRNA levels", "setting": "[4]", "result": "Although less severe, Pep3 caused a similar decrease"},
      {"measurement": "shared DEGs varying significantly between Pep3 and Pep3S", "setting": "[13]; HCT116", "result": "11/16"},
      {"measurement": "p21 levels in p53 array", "setting": "[13]; HCT116, p53 array", "result": "not significantly altered"},
      {"measurement": "downregulated DEGs that are miR-34a targets, common to both peptides", "setting": "[13]; [17]", "result": "8 of the 10"},
      {"measurement": "uniquely downregulated DEGs that are miR-34a targets", "setting": "[13]; [17]", "result": "4/7"},
      {"measurement": "ADGRB1 expression", "setting": "[13]; [18]", "result": 0.64},
      {"measurement": "BAX expression", "setting": "[13]; [18]", "result": 0.55},
      {"measurement": "EGFR expression", "setting": "[13]; [18]", "result": 0.50},
      {"measurement": "FASLG expression", "setting": "[13]; [18]", "result": 3.64},
      {"measurement": "MCL1 expression", "setting": "[13]; [18]", "result": 0.59},
      {"measurement": "NFKB1 expression", "setting": "[13]; [18]", "result": 0.51},
      {"measurement": "PRKCA expression", "setting": "[13]; [18]", "result": 0.53},
      {"measurement": "PTEN expression", "setting": "[13]; [18]", "result": 0.59},
      {"measurement": "DEGs unique to the peptide", "setting": "[13]; vs Scramble mix, HCT116", "result": "8/33"},
      {"measurement": "p21 mRNA levels", "setting": "[9]", "result": "Although less severe, Pep3 caused a similar decrease"},
      {"measurement": "Kd", "setting": "[14]", "result": "0.245 ± 0.029", "unit": "nM"}
    ]},
    {"molecule": "KVFIA [Pep3S]", "values": [
      {"measurement": "cell proliferation", "setting": "[2]", "result": "ineffective in reducing p21 levels and cell proliferation"},
      {"measurement": "IC50", "setting": "[15]", "result": 5540, "unit": "nM"},
      {"measurement": "cell proliferation", "setting": "[16]", "result": "did not alter cell proliferation"},
      {"measurement": "Kd", "setting": "[14]", "result": "0.152 ± 0.007", "unit": "nM"}
    ]},
    {"molecule": "VAIKF [Scramble3S]", "values": [
      {"measurement": "Kd", "setting": "[14]", "result": 0.447, "unit": "nM"}
    ]}
  ]
}
